The record followed here is PubChem BioAssay (NCI).

Holding throughout (assay): growth of human tumour cells (NCI), 48 h
For test [1], the system named is A498 renal.
The test system of test [2] is CAKI-1 renal.
The subject of test [3] is BT-549 breast.
In test [4] the test system is SF-539 CNS.
The subject of test [5] is SN12C renal.
Test [6] relates to TK-10 renal.
Test [7] relates to SW-620 colon.
The test system of test [8] is OVCAR-5 ovarian.
In test [9] the test system is A549 NSCLC.
The subject of test [10] is HL-60(TB) leukemia.

SMILES strings stand for the structures. Where “and” joins values, the source holds several entries; their conditions need not be identical. Identical values can stand only once.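 Compound exposure: 48 hours, 5 concentrations, 96-well plates. GI50: concentration for 50% inhibition of growth. TGI denotes the concentration required for complete inhibition of growth.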 Some results are limits rather than exact numbers.

On to `O=[N+]([O-])c1ccc2c(c1)Cc1cc(N=Cc3ccc4c(c3)OCO4)ccc1-2`, for which the TGI in [1], in test [2], in [3], in test [4], in [5] and in test [6] was above 100 µM each time. For the same compound, the TGI in [7], in test [8], in [9] and in test [10] was above 100 µM throughout.
In the case of `COc1cccc(-n2nc(C)c3c(N/N=C(\C)c4ccncc4)ncnc32)c1`, the GI50 was 4.76 µM in test [1]; above 25 µM in [2]; above 21.9 µM in test [3]; 22.8 µM in [4]; above 25 µM in test [5]; 10.2 µM in test [6]. Besides, the GI50 in test [7], in test [8], in [9] and in test [10] was above 25 µM each time. In addition, the TGI in [1], in test [2], in test [3], in test [4], in test [5] and in test [6] was above 25 µM each time. Besides, the TGI in test [7], in test [8], in [9] and in [10] was above 25 µM throughout.
For the compound `COc1cccc2c1C(=O)c1c(O)c3c(c(O)c1C2=O)CC(O)(C(O)CO)CC3OC1CC(N2CCOCC2)C(O)C(C)O1` (stereo not drawn), the GI50 in test [1] was 0.0139 µM; in [4], 0.0187 µM; in test [5], 0.0186 µM; in [6], 0.0233 µM; in test [7], 0.0138 µM; in [8] it was 0.0331 µM. In test [10], the GI50 was 0.0352 µM and 0.0251 µM. In addition, the TGI is 0.0335 µM in test [2]; 0.206 µM in test [3]; 0.014 µM and 0.0744 µM in test [4]; 0.0926 µM and 0.0935 µM in test [8]; 0.472 µM in test [9]; 0.195 µM in [10].
Regarding `CC1(N)CCN(c2cccnc2NC(=O)c2nc(-c3ncccc3C(F)(F)F)cnc2N)CC1`, the GI50 is 34.7 µM in [1]; 17.8 µM in test [2]; 18.2 µM in test [3]; 14.4 µM in test [4]; 16.2 µM in test [5]; 4.35 µM in test [6]. In addition, the GI50 was 28.4 µM in test [7], 20 µM in test [8], 22 µM in test [9] and 12.4 µM in [10]. Further, the TGI in test [1] was above 100 µM; in test [2], above 100 µM; in test [3], above 100 µM; in test [4], 33.7 µM; in test [5], above 100 µM; in [6] it was above 100 µM. Besides, the TGI in test [7] is above 100 µM; in test [8], above 100 µM; in test [9] it was above 100 µM; in test [10] it was 37.8 µM.
`COc1cc2c3c(n(CCCCN)c(=O)c2cc1OC)-c1cc2c(cc1C3=O)OCO2`: the GI50 in test [1] is 7.81 µM; in test [2], 0.656 µM; in test [3], 1.17 µM; in test [4] it was 0.0434 µM; in test [5], 0.0583 µM; in [6], 3.84 µM. Besides, the GI50 in test [7] was 0.0851 µM; in [8], 4.97 µM; in test [9], 1.06 µM; in test [10], 1.88 µM. The TGI in [1] worked out at 17 µM; in [2] it was 4.12 µM; in [3], 4.84 µM; in [4] it was 0.139 µM; in test [5], 0.235 µM; in test [6] it was 8.48 µM. Further, the TGI was 2.3 µM in test [7], 12.3 µM in [8], 11.9 µM in test [9] and 15.4 µM in [10].
Take `O=C(Cn1c(=O)c(-c2ccccc2)nc2ccccc21)Nc1ccc(F)cc1`: the GI50 in test [1] was 13.7 µM; in test [2] it was above 100 µM; in [3], 36.4 µM; in [4], 4.03 µM; in [5], 77.5 µM; in test [6], 85 µM. In addition, the GI50 is 67 µM in test [7], above 100 µM in test [8], 94.8 µM in test [9] and 14.1 µM in [10]. Moreover, the TGI in test [1] is 97.9 µM; in test [2], above 100 µM; in test [3], above 100 µM; in test [4] it was 28.7 µM; in [5], above 100 µM; in [6], above 100 µM. Moreover, the TGI in test [7] is above 100 µM; in [8], above 100 µM; in [9] it was above 100 µM; in [10], 48 µM.
`CCOC(=O)c1cc2c(n1Cc1cccc(OC)c1)-c1oncc1CCC2`: the GI50 in test [1] is 0.881 µM; in [2], 2.12 µM; in [3], 1.61 µM; in [4], 1.19 µM; in test [5] it was 6.46 µM; in [6] it was 7 µM. The GI50 in test [7] is 0.554 µM; in test [8], 6.31 µM; in test [9] it was 0.915 µM; in test [10], 1.19 µM. Besides, the TGI is 17.6 µM in [1]; above 100 µM in test [2]; above 100 µM in test [3]; 4.68 µM in test [4]; above 100 µM in [5]; above 100 µM in [6]. Also, the TGI in [7] is above 100 µM; in test [8] it was above 100 µM; in test [9], above 100 µM; in test [10] it was above 58.4 µM.
As to `CC1CC2OC(=O)C(C)C2CC2(C)C(OC3OC(CO)C(O)C(O)C3O)OCCC12` (stereo not drawn), the TGI in test [1] is above 100 µM; in test [2] it was above 100 µM; in [3], 29.4 µM; in test [4], above 100 µM; in [5], above 100 µM; in test [6], above 100 µM. Further, the TGI in test [7], in [8], in test [9] and in test [10] was above 100 µM each time.
